Patent publication US8951527B2, “Radioprotectants targeting thrombospondin-1 and CD47” (The United States of America, as represented by the …, priority 2008, dated 2015)
“Also recorded” adds a separate entry of the source.

Tests used:
[1] = test system: HUVEC; experiment: HUVEC proliferation post-radiation (BrdU incorporation); format: cell-based, human; settings: treated 48 hours before 10 Gy, over 1 week (FIG. 14)
Protocol: FIG. 14. TSP1 and CD47 antibodies or antisense suppression of CD47 maintain proliferation of irradiated HUVEC. HUVEC were plated in 96-well plates in growth medium and treated with CD47 morpholino (FIG. 14A; *p<0.05, #p<0.01) TSP1, or CD47 antibodies (FIG. 14B; *p<0.05, #p<0.01) and exposed to 10 Gy irradiation 48 hours later. Cell proliferation at the indicated times post-radiation was determined by intracellular BrdU incorporation. Experiments were repeated 3 times, and results presented as the mean±SD.
FIG. 15. HUVEC protected by radioprotective agents are both viable and proliferate at a better rate than untreated cells in culture. Proliferation was assessed by quantifying incorporation of bromodeoxyuridine (BrdU) into newly synthesized DNA using a BrdU Cell Proliferation Assay. HUVEC were seeded into 96 well plates for 24 hours at 37° C., then treated with either antibody A6.1 or B6H12 or peptide 7N3. The treated cells were irradiated at 40 Gy 1 hour later. Control and irradiated plates were assayed for BrdU uptake over 96 hours post-radiation. The assay was performed according to the manufacturer's protocol, and the plates were read at 420 nm.
Cell proliferation assay: Proliferation was assessed by quantifying incorporation of bromodeoxyuridine (BrdU) into newly synthesized DNA using a BrdU Cell Proliferation Assay (Calbiochem, La Jolla, Calif.). Primary murine wild type, TSP1, TSP2, and CD47 null lung endothelial cells were seeded into 96 well plates at 5×10^4 cells/well density. After 24 hours incubation at 37° C. treatment groups were irradiated at 40 Gy. Control and irradiated plates were assayed for BrdU uptake over 24 hours starting at 48 to 168 hours post-radiation. The assay was performed according to the manufacturer's protocol, and the plates were read at 420 nm.
Proliferative capacities were also determined in endothelial cells exposed to high doses of radiation of 40 Gy. […] The assay was performed according to the manufacturer's protocol, and the plates were read at 420 nm.

[2] = test system: HUVEC; experiment: HUVEC cell viability after irradiation (MTT / CellTiter 96); format: cell-based, human
Protocol: FIG. 11. Radioprotective activities of TSP1 and CD47 antibodies, a CD47 binding peptide from TSP1, and a CD47 morpholino. HUVEC were plated on 96-well plates in standard growth medium. Cells were treated with TSP1 (FIG. 11A) or CD47 (FIG. 11B) monoclonal antibodies (clone A6.1 or B6H12, respectively) and received the indicated doses of radiation 24 hours after addition of the antibodies. Cell (mitochondrial) viability was measured 48 hours post irradiation using an MTT assay. Cells were treated using peptide 7N3 (FIG. 11C) and control peptide 604 (FIG. 11D), subjected to the same experimental conditions, and assayed via MTT. […] Experiments were repeated 3 times and results presented as the mean±SD.
(§1) FIG. 12. Peptides 7N3 and C6d are radioprotective to HUVEC in culture. Human umbilical vein endothelial cells (HUVEC) grown in EGM medium in 96-well plates were treated with graded doses of a peptide agent, as indicated. One hour later, cells were exposed to a single dose of gamma radiation (0, 10, 20, 30, and 40 Gray) and allowed to incubate 72 hours at 37° C. Cell viability was determined with the CellTiter 96 AQueous One Solution Cell Proliferation Assay.
Cell Viability Assay. HUVEC were plated at a density of 5000 cells/well in 96 well plates (Nunc), and were treated 24 hours later with either the indicated doses of a CD47 antibody (B6H12), a TSP1 antibody (A6.1), the CD47-binding peptide 7N3, or control peptide 604. One hour later the cells were exposed to a single dose of gamma radiation (0, 10, 20, 30, and 40 Gy) and allowed to incubate another 72 hours at 37° C. Experiments done with B16E10 melanoma cells in Example 4 were done in a similar manner treating either 1 hour prior to a single dose of radiation (10 Gy) with peptide 7N3 or 48 hours prior with CD47 morpholino. Cell viability was determined using the CellTiter 96 Aqueous One Solution cell proliferation assay (Promega, Madison, Wis.) as per the manufacturer's instructions and absorbance at 490 nm was determined using an MR580 Microelisa AutoReader (Dynatech, Alexandria, Va.). The same assay was performed on HUVEC using either the CD47 or CD36 morpholino, but 48 hours were allowed to pass prior to radiation (0 or 40 Gy) to allow for suppression of the target proteins. Similarly, control experiments were performed using the nitric oxide synthase (NOS) inhibitor L-NAME, a membrane permeable cGMP analogue, 8-Bromo cGMP, or the NO donor DETA/NO.
as §1, with “In an additional experiment to test the effect of” for “FIG. 12. Peptides 7N3 and C6d are”, “peptides, human” for “to HUVEC in culture. Human”

In the case of “CGTCACAGGCAGGACCCACTGCCCA (all phosphorodiamidate morpholino (PMO)) [CD47 morpholino, CD47 targeting morpholino oligonucleotide]”, the “proliferation (BrdU incorporation / DNA synthesis) after 10 Gy” value [1] is reported as “maintained proliferation”, the “cell survival of irradiated HUVEC with L-NAME co-incubation” value ([2]; co-incubation of L-NAME and CD47 morpholino ± radiation (FIG. 22C)) is reported as “enhancing cell survival” and the “cell viability post radiation after morpholino pretreatment” value ([2]; morpholino 48 hours before radiation (FIG. 11E, F)) is reported as “granted protection against cell death; also recorded: resistant to radiation-driven cell death”.
